Reference: paper PMC10439952, “JT002, a small molecule inhibitor of the NLRP3 inflammasome for the treatment of autoinflammatory disorders” (Scientific Reports, 2023)

Key:
[1] = system: autocatalytic cleavage of pro-caspase-1 (p45) into the p10 subunit; experiment: Western blot for caspase-1 p10 in LPS + nigericin stimulated mouse BMDM lysates and supernatants; assay type: cell-based; settings: LPS + nigericin treated mBMDMs, compound 10 µM
Method: BMDMs were activated with LPS and nigericin as described above and were lysed in situ with 50 μL of 4× NuPAGE LDS sample buffer (Fisher Scientific, Hampton, NH) + 5% β-mercaptoethanol and prepared for polyacrylamide gel electrophoresis. Samples were run on NuPAGE Bis–Tris gels (Fisher Scientific, Hampton, NH) and transferred to polyvinylidene difluoride (PVDF) membranes (Fisher Scientific, Hampton, NH) using the iBlot® 2 Dry Blotting System (Fisher Scientific, Hampton, NH). Washed PVDF membranes were blocked and then probed with the following primary antibodies: procaspase-1 + p10 + p12 [EPR16883] (Abcam, Cambridge, MA), β-actin (AC-74, Sigma-Aldrich, St. Louis, MO) and NLRP3 [Cryo-2] (AdipoGen Life Sciences, San Diego, CA). Bound primary antibodies were detected using HRP-labeled secondary antibodies and membranes were imaged with an Azure c300 imager (Azure Biosystems, Dublin, CA). Bands were quantitated using ImageJ software.

[2] = system: murine house dust mite model of severe corticosteroid-resistant asthma; parameters: method as in PMID 28528200; settings: i.p. administration; cited from earlier work
[3] = parameters: method as in PMID 26206150; settings: daily dose of 1200 mg; development terminated; cited from earlier work

CC(C)(O)c1coc(S(=O)(=O)NC(=O)Nc2c3c(cc4c2CCC4)CCC3)c1 [MCC950]
formation of the caspase-1 p10 subunit (autocatalytic cleavage of pro-caspase-1) [1]: blocked formation of the p10 subunit and its release from the cell
bronchoalveolar lavage IL-1β concentrations [2]: reduced
bronchoalveolar lavage neutrophilia [2]: reduced
development of airway hyperresponsiveness [2]: completely prevented
liver safety in the clinic [3]: drug induced liver injury (DILI) detected

CCOC(=O)C1=CCCC[C@H]1S(=O)(=O)Nc1ccc(F)cc1Cl [TAK242, ethyl (6R)-6-[N-(2-Chloro-4-fluorophenyl)sulfamoyl]cyclohex-1-ene-1-carboxylate]
formation of the caspase-1 p10 subunit (autocatalytic cleavage of pro-caspase-1) [1]: did not inhibit the autocatalytic cleavage of pro-caspase-1 into the p10 subunit
p10 component in cell supernatants [1]: appearance of the p10 component in cell supernatants

C[C@H](NC(=O)C(=O)Nc1ccccc1C(C)(C)C)C(=O)N[C@@H](CC(=O)O)C(=O)COc1c(F)c(F)cc(F)c1F [emricasan]
formation of the caspase-1 p10 subunit (autocatalytic cleavage of pro-caspase-1) [1]: did not inhibit the autocatalytic cleavage of pro-caspase-1 into the p10 subunit
